Values after ≈ are worked out from the molar mass of the structure shown.
Key:
Aspergillus fumigatus [1] = assay: Fungicidal activity against Aspergillus fumigatus incubated for 72 hrs followed by serial sub-cultivation for 72 hrs and measured after 72 hrs by serial dilution method; assay type: functional
Listeria monocytogenes [2] = assay: Bactericidal activity against Listeria monocytogenes NCTC 7973 incubated for 24 hrs followed by serial sub-cultivation and measured after 24 hrs by microdilution method; assay type: functional
Pseudomonas aeruginosa [3] = assay: Antibacterial activity against Pseudomonas aeruginosa ATCC 27853 after 24 hrs by microdilution method; assay type: functional; settings: ATCC 27853, 24 h
Candida albicans [4] = assay: Antifungal activity against Candida albicans after 72 hrs by serial dilution method; assay type: functional
Aspergillus versicolor [5] = assay: Fungicidal activity against Aspergillus versicolor ATCC 11730 incubated for 72 hrs followed by serial sub-cultivation for 72 hrs and measured after 72 hrs by serial dilution method; assay type: functional
Escherichia coli [6] = assay: Bactericidal activity against Escherichia coli ATCC 35210 incubated for 24 hrs followed by serial sub-cultivation and measured after 24 hrs by microdilution method; assay type: functional
Penicillium ochrochloron [7] = assay: Antifungal activity against Penicillium ochrochloron ATCC 9112 after 72 hrs by serial dilution method; assay type: functional; settings: ATCC 9112, 72 h
Trichoderma viride [8] = assay: Antifungal activity against Trichoderma viride IAM 5061 after 72 hrs by serial dilution method; assay type: functional; settings: IAM 5061, 72 h
Staphylococcus aureus [9] = assay: Antibacterial activity against Staphylococcus aureus ATCC 6538 after 24 hrs by microdilution method; assay type: functional; settings: ATCC 6538, 24 h
Aspergillus versicolor [10] = assay: Antifungal activity against Aspergillus versicolor ATCC 11730 after 72 hrs by serial dilution method; assay type: functional; settings: ATCC 11730, 72 h
Salmonella typhimurium [11] = assay: Bactericidal activity against Salmonella typhimurium ATCC 13311 incubated for 24 hrs followed by serial sub-cultivation and measured after 24 hrs by microdilution method; assay type: functional, Salmonella enterica subsp. enterica serovar Typhimurium
Bacillus cereus [12] = assay: Bactericidal activity against Bacillus cereus incubated for 24 hrs followed by serial sub-cultivation and measured after 24 hrs by microdilution method; assay type: functional
Penicillium ochrochloron [13] = assay: Fungicidal activity against Penicillium ochrochloron ATCC 9112 incubated for 72 hrs followed by serial sub-cultivation for 72 hrs and measured after 72 hrs by serial dilution method; assay type: functional
Talaromyces funiculosus [14] = assay: Antifungal activity against Penicillium funiculosum ATCC 36839 after 72 hrs by serial dilution method; assay type: functional; settings: ATCC 36839, 72 h
Aspergillus ochraceus [15] = assay: Antifungal activity against Aspergillus ochraceus ATCC 12066 after 72 hrs by serial dilution method; assay type: functional; settings: ATCC 12066, 72 h
Aspergillus ochraceus [16] = assay: Fungicidal activity against Aspergillus ochraceus ATCC 12066 incubated for 72 hrs followed by serial sub-cultivation for 72 hrs and measured after 72 hrs by serial dilution method; assay type: functional
Aspergillus fumigatus [17] = assay: Antifungal activity against Aspergillus fumigatus after 72 hrs by serial dilution method; assay type: functional
Pseudomonas aeruginosa [18] = assay: Bactericidal activity against Pseudomonas aeruginosa ATCC 27853 incubated for 24 hrs followed by serial sub-cultivation and measured after 24 hrs by microdilution method; assay type: functional
Staphylococcus aureus [19] = assay: Bactericidal activity against Staphylococcus aureus ATCC 6538 incubated for 24 hrs followed by serial sub-cultivation and measured after 24 hrs by microdilution method; assay type: functional
Escherichia coli [20] = assay: Antibacterial activity against Escherichia coli ATCC 35210 after 24 hrs by microdilution method; assay type: functional; settings: ATCC 35210, 24 h
Enterobacter cloacae [21] = assay: Bactericidal activity against Enterobacter cloacae incubated for 24 hrs followed by serial sub-cultivation and measured after 24 hrs by microdilution method; assay type: functional
Bacillus cereus [22] = assay: Antibacterial activity against Bacillus cereus after 24 hrs by microdilution method; assay type: functional
Micrococcus flavus [23] = assay: Bactericidal activity against Micrococcus flavus ATCC 10240 incubated for 24 hrs followed by serial sub-cultivation and measured after 24 hrs by microdilution method; assay type: functional
Aspergillus niger [24] = assay: Fungicidal activity against Aspergillus niger ATCC 6275 incubated for 72 hrs followed by serial sub-cultivation for 72 hrs and measured after 72 hrs by serial dilution method; assay type: functional
Trichoderma viride [25] = assay: Fungicidal activity against Trichoderma viride IAM 5061 incubated for 72 hrs followed by serial sub-cultivation for 72 hrs and measured after 72 hrs by serial dilution method; assay type: functional
Candida albicans [26] = assay: Fungicidal activity against Candida albicans incubated for 72 hrs followed by serial sub-cultivation for 72 hrs and measured after 72 hrs by serial dilution method; assay type: functional
Talaromyces funiculosus [27] = assay: Fungicidal activity against Penicillium funiculosum ATCC 36839 incubated for 72 hrs followed by serial sub-cultivation for 72 hrs and measured after 72 hrs by serial dilution method; assay type: functional
Aspergillus niger [28] = assay: Antifungal activity against Aspergillus niger ATCC 6275 after 72 hrs by serial dilution method; assay type: functional; settings: ATCC 6275, 72 h
Enterobacter cloacae [29] = assay: Antibacterial activity against Enterobacter cloacae after 24 hrs by microdilution method; assay type: functional
Listeria monocytogenes [30] = assay: Antibacterial activity against Listeria monocytogenes NCTC 7973 after 24 hrs by microdilution method; assay type: functional; settings: NCTC 7973, 24 h
Micrococcus flavus [31] = assay: Antibacterial activity against Micrococcus flavus ATCC 10240 after 24 hrs by microdilution method; assay type: functional; settings: ATCC 10240, 24 h
Salmonella typhimurium [32] = assay: Antibacterial activity against Salmonella typhimurium ATCC 13311 after 24 hrs by microdilution method; assay type: functional, Salmonella enterica subsp. enterica serovar Typhimurium; settings: Salmonella enterica, ATCC 13311, 24 h

Structure (SMILES)	MFC99.5 (Aspergillus fumigatus [1]) [×10⁻² umol/ml]	MBC99.5 (Listeria monocytogenes [2]) [×10⁻² umol/ml]	MIC (Pseudomonas aeruginosa [3]) [µM]	MIC (Candida albicans [4]) [µM]	MFC99.5 (Aspergillus versicolor [5]) [×10⁻² umol/ml]	MBC99.5 (Escherichia coli [6]) [×10⁻² umol/ml]	MIC (Penicillium ochrochloron [7]) [µM]	MIC (Trichoderma viride [8]) [µM]	MIC (Staphylococcus aureus [9]) [µM]	MIC (Aspergillus versicolor [10]) [µM]	MBC99.5 (Salmonella typhimurium [11]) [×10⁻² umol/ml]	MBC99.5 (Bacillus cereus [12]) [×10⁻² umol/ml]	MFC99.5 (Penicillium ochrochloron [13]) [×10⁻² umol/ml]	MIC (Talaromyces funiculosus [14]) [µM]	MIC (Aspergillus ochraceus [15]) [µM]	MFC99.5 (Aspergillus ochraceus [16]) [×10⁻² umol/ml]	MIC (Aspergillus fumigatus [17]) [µM]	MBC99.5 (Pseudomonas aeruginosa [18]) [×10⁻² umol/ml]	MBC99.5 (Staphylococcus aureus [19]) [×10⁻² umol/ml]	MIC (Escherichia coli [20]) [µM]	also measured
O=C(Cc1nsc2ccccc12)NN1C(=O)CSC1c1ccccc1 (stereo unspecified)	40.5	40.5	216 (≈ 79.8 µg/mL)	216 (≈ 79.8 µg/mL)	40.5	40.5	162 (≈ 59.9 µg/mL)	54 (≈ 20 µg/mL)	216 (≈ 79.8 µg/mL)	216 (≈ 79.8 µg/mL)	40.5	40.5	21.6	216 (≈ 79.8 µg/mL)	54 (≈ 20 µg/mL)	10.8	108 (≈ 39.9 µg/mL)	40.5	40.5	216 (≈ 79.8 µg/mL)	MBC99.5 (Enterobacter cloacae [21]): 21.4 ×10⁻² umol/ml; MIC (Bacillus cereus [22]): 216 µM (≈ 79.8 µg/mL); MBC99.5 (Micrococcus flavus [23]): 40.5 ×10⁻² umol/ml; MFC99.5 (Aspergillus niger [24]): 21.6 ×10⁻² umol/ml; MFC99.5 (Trichoderma viride [25]): 10.8 ×10⁻² umol/ml; MFC99.5 (Candida albicans [26]): 40.5 ×10⁻² umol/ml; MFC99.5 (Talaromyces funiculosus [27]): 21.6 ×10⁻² umol/ml; MIC (Aspergillus niger [28]): 162 µM (≈ 59.9 µg/mL); MIC (Enterobacter cloacae [29]): 108 µM (≈ 39.9 µg/mL); MIC (Listeria monocytogenes [30]): 216 µM (≈ 79.8 µg/mL); MIC (Micrococcus flavus [31]): 297 µM (≈ 110 µg/mL); MIC (Salmonella typhimurium [32]): 216 µM (≈ 79.8 µg/mL)
O=C(Cc1nsc2ccccc12)N/N=C/c1c(F)cccc1F	96.4	23.2	116 (≈ 38.4 µg/mL)	121 (≈ 40.1 µg/mL)	12.1	23.2	181 (≈ 60 µg/mL)	61 (≈ 20.2 µg/mL)	29 (≈ 9.61 µg/mL)	91 (≈ 30.2 µg/mL)	23.2	23.2	24.1	91 (≈ 30.2 µg/mL)	121 (≈ 40.1 µg/mL)	24.1	482 (≈ 160 µg/mL)	23.2	23.2	116 (≈ 38.4 µg/mL)	MBC99.5 (Enterobacter cloacae [21]): 23.2 ×10⁻² umol/ml; MIC (Bacillus cereus [22]): 116 µM (≈ 38.4 µg/mL); MBC99.5 (Micrococcus flavus [23]): 23.2 ×10⁻² umol/ml; MFC99.5 (Aspergillus niger [24]): 24.1 ×10⁻² umol/ml; MFC99.5 (Trichoderma viride [25]): 12.1 ×10⁻² umol/ml; MFC99.5 (Candida albicans [26]): 24.1 ×10⁻² umol/ml; MFC99.5 (Talaromyces funiculosus [27]): 12.1 ×10⁻² umol/ml; MIC (Aspergillus niger [28]): 121 µM (≈ 40.1 µg/mL); MIC (Enterobacter cloacae [29]): 116 µM (≈ 38.4 µg/mL); MIC (Listeria monocytogenes [30]): 116 µM (≈ 38.4 µg/mL); MIC (Micrococcus flavus [31]): 116 µM (≈ 38.4 µg/mL); MIC (Salmonella typhimurium [32]): 116 µM (≈ 38.4 µg/mL)
O=C(N/N=C/c1c(Cl)cccc1Cl)c1nsc2ccccc12	46.4	46.4	232 (≈ 81.3 µg/mL)	232 (≈ 81.3 µg/mL)	58	23.2	232 (≈ 81.3 µg/mL)	116 (≈ 40.6 µg/mL)	58 (≈ 20.3 µg/mL)	464 (≈ 163 µg/mL)	23.2	23.2	46.4	464 (≈ 163 µg/mL)	232 (≈ 81.3 µg/mL)	46.4	232 (≈ 81.3 µg/mL)	46.4	17.6	116 (≈ 40.6 µg/mL)	MBC99.5 (Enterobacter cloacae [21]): 23.2 ×10⁻² umol/ml; MIC (Bacillus cereus [22]): 116 µM (≈ 40.6 µg/mL); MBC99.5 (Micrococcus flavus [23]): 23.2 ×10⁻² umol/ml; MFC99.5 (Aspergillus niger [24]): 58 ×10⁻² umol/ml; MFC99.5 (Trichoderma viride [25]): 46.4 ×10⁻² umol/ml; MFC99.5 (Candida albicans [26]): 46.4 ×10⁻² umol/ml; MFC99.5 (Talaromyces funiculosus [27]): 58 ×10⁻² umol/ml; MIC (Aspergillus niger [28]): 464 µM (≈ 163 µg/mL); MIC (Enterobacter cloacae [29]): 116 µM (≈ 40.6 µg/mL); MIC (Listeria monocytogenes [30]): 232 µM (≈ 81.3 µg/mL); MIC (Micrococcus flavus [31]): 116 µM (≈ 40.6 µg/mL); MIC (Salmonella typhimurium [32]): 116 µM (≈ 40.6 µg/mL)

— ChEMBL document CHEMBL4257449, “New N-(2-phenyl-4-oxo-1,3-thiazolidin-3-yl)-1,2-benzothiazole-3-carboxamides and acetamides as antimicrobial agents” (2017)
